Data on 19 compounds can be found in patent publication US20180265515A1 (Genentech, Inc., priority 2015, published 2018).

The target in assay [1] is T1, isolated recombinant JAK1 kinase domain (Homo sapiens, UniProt P23458).
T1 construct: The activity of the isolated recombinant JAK1 and JAK2 kinase domain was measured
Kind of assay: JAK1 enzyme assay (Caliper LabChip, Ki). Format: biochemical. As to conditions: recombinant JAK1 kinase domain, 25 μM ATP. An outline of the steps: (§1)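 Phosphorylation of a fluorescent JAK3-derived dodecapeptide by recombinant human JAK1 or JAK2 catalytic domain is monitored through electrophoretic product/substrate separation. Incubation lasts 30 minutes at 22° C; EDTA quench. Morrison-model Ki values account for ATP competition.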

Assay [2] deals with T2, isolated recombinant JAK2 kinase domain (Homo sapiens, UniProt O60674).
T2 construct: The activity of the isolated recombinant JAK1 and JAK2 kinase domain was measured
As to the kind of experiment: JAK2 enzyme assay (Caliper LabChip, Ki). Type of assay: biochemical. As to conditions: 25 μM ATP. A digest of the protocol:
as §1

Assay [3] has as its system JAK1-dependent STAT6 phosphorylation downstream of IL-13 stimulation in BEAS-2B human bronchial epithelial cells. Kind of assay: JAK1 pathway assay in BEAS-2B cells (IL-13 stimulated STAT6 phosphorylation, MSD). Format: cell-based. As to conditions: read-out: P-STAT6 BEAS2B + IL13 IC50. An outline of the steps: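 BEAS-2B human bronchial epithelial cells, plated the day before in complete growth medium, were preincubated with compound for 1 hr at 37° C (0.2% DMSO final), then stimulated with IL-13 at its EC90 for 15 min. STAT6 phosphorylation in lysates was read by MSD; EC50 was taken as 50% inhibition versus DMSO control.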

Each structure is given as a SMILES string.

T2 sequence (O60674 849-1124 limits assumed): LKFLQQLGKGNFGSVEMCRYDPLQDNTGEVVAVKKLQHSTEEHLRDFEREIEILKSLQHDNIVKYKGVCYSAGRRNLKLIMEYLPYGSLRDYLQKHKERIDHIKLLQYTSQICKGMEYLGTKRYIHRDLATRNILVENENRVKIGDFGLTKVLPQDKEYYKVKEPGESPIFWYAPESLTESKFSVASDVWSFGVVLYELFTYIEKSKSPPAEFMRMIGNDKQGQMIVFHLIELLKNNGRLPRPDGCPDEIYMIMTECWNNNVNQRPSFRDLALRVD
T1 sequence (P23458 875-1153 limits assumed): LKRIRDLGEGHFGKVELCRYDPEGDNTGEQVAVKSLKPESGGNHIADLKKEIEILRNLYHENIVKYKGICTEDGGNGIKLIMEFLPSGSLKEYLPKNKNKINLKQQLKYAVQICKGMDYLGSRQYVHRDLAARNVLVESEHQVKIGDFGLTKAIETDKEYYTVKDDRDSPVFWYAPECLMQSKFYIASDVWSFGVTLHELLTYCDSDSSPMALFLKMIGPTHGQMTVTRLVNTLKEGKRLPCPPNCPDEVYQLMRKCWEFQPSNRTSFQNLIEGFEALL

Consider `CC(C)Sc1ccc(OC(F)F)c(-c2nn(CC(=O)N3CC4CCCNC4C3)cc2NC(=O)c2cnn3cccnc23)c1` (stereo not drawn) [Example 124, N-[1-[2-(1,2,3,4,4a,5,7,7a-octahydropyrrolo[3,4-b]pyridin-6-yl)-2-oxo-ethyl]-3-[2-(difluoromethoxy)-5-isopropylsulfanyl-phenyl]pyrazol-4-yl]pyrazolo[1,5-a]pyrimidine-3-carboxamide], for which the Ki in assay [1] is 0.92 nM; in assay [2] it was 1.1 nM. The half-maximal inhibitory concentration (IC50) in assay [3] amounted to 59 nM.

For `CC(C)Sc1ccc(OC(F)F)c(-c2nn(CC(=O)N3CCN(C4CCOCC4)CC3)cc2NC(=O)c2cnn3cccnc23)c1` [Example 125, N-[3-[2-(difluoromethoxy)-5-isopropylsulfanyl-phenyl]-1-[2-oxo-2-(4-tetrahydropyran-4-ylpiperazin-1-yl)ethyl]pyrazol-4-yl]pyrazolo[1,5-a]pyrimidine-3-carboxamide], the Ki amounted to 0.47 nM in assay [1] and 0.94 nM in assay [2]. For the same compound, the half-inhibitory concentration (IC50) in assay [3] came to 17 nM.

On to `CC(C)Sc1ccc(OC(F)F)c(-c2nn(CC(=O)N3CCN(CCCO)CC3)cc2NC(=O)c2cnn3cccnc23)c1` [Example 126, N-[3-[2-(difluoromethoxy)-5-isopropylsulfanyl-phenyl]-1-[2-[4-(3-hydroxypropyl)piperazin-1-yl]-2-oxo-ethyl]pyrazol-4-yl]pyrazolo[1,5-a]pyrimidine-3-carboxamide], for which the Ki turned out to be 0.37 nM in assay [1] and 0.84 nM in assay [2]. Further, the half-inhibitory concentration (IC50) in assay [3] was 43 nM.

Consider `CC(C)Sc1ccc(OC(F)F)c(-c2nn(CC(=O)N3CCN(CC4(C)COC4)CC3)cc2NC(=O)c2cnn3cccnc23)c1` [Example 127, N-[3-[2-(difluoromethoxy)-5-isopropylsulfanyl-phenyl]-1-[2-[4-[(3-methyloxetan-3-yl)methyl]piperazin-1-yl]-2-oxo-ethyl]pyrazol-4-yl]pyrazolo[1,5-a]pyrimidine-3-carboxamide], for which the Ki was found to be 0.48 nM in assay [1] and 0.97 nM in assay [2]. Further, the IC50 in assay [3] amounted to 35 nM.

For the compound `CC(C)Sc1ccc(OC(F)F)c(-c2nn(CC(=O)N3CCN(C4CCOC4)CC3)cc2NC(=O)c2cnn3cccnc23)c1` (stereo not drawn) [Example 128, N-[3-[2-(difluoromethoxy)-5-isopropylsulfanyl-phenyl]-1-[2-oxo-2-(4-tetrahydrofuran-3-ylpiperazin-1-yl)ethyl]pyrazol-4-yl]pyrazolo[1,5-a]pyrimidine-3-carboxamide], the Ki in assay [1] was 0.58 nM; in assay [2] it was 1.2 nM. In addition, in assay [3], the half-maximal inhibitory concentration (IC50) is 47 nM.

As to `CC(C)Sc1ccc(OC(F)F)c(-c2nn(CC(=O)N3CCC(N4CC(C#N)C4)CC3)cc2NC(=O)c2cnn3cccnc23)c1` [Example 129, N-(1-[2-[4-(3-cyanoazetidin-1-yl)piperidin-1-yl]-2-oxoethyl]-3-[2-(difluoromethoxy)-5-(propan-2-ylsulfanyl)phenyl]-1H-pyrazol-4-yl)pyrazolo[1,5-a]pyrimidine-3-carboxamide], the Ki is 0.42 nM in assay [1] and 0.99 nM in assay [2]. Further, the IC50 in assay [3] was determined as 26 nM.

Consider `CC(C)Sc1ccc(OC(F)F)c(-c2nn(CC(=O)N3CCC(N4CC5CC(C4)O5)CC3)cc2NC(=O)c2cnn3cccnc23)c1` [Example 130, N-[3-[2-(difluoromethoxy)-5-isopropylsulfanyl-phenyl]-1-[2-[4-(6-oxa-3-azabicyclo[3.1.1]heptan-3-yl)-1-piperidyl]-2-oxo-ethyl]pyrazol-4-yl]pyrazolo[1,5-a]pyrimidine-3-carboxamide], for which the inhibition constant (Ki) came to 0.57 nM in assay [1] and 1 nM in assay [2]. In addition, in assay [3], the IC50 was found to be 19 nM.

With `CC(C)Sc1ccc(OC(F)F)c(-c2nn(CC(=O)N3CCN(CCO)CC3)cc2NC(=O)c2cnn3cccnc23)c1` [Example 131, N-[3-[2-(difluoromethoxy)-5-isopropylsulfanyl-phenyl]-1-[2-[4-(2-hydroxyethyl)piperazin-1-yl]-2-oxo-ethyl]pyrazol-4-yl]pyrazolo[1,5-a]pyrimidine-3-carboxamide], the results for the Ki in assay [1] and in assay [2] were 0.41 nM and 0.8 nM, respectively. In addition, the IC50 in assay [3] was 30 nM.

For `CC(C)Sc1ccc(OC(F)F)c(-c2nn(CC(=O)N3CCC(C)(N4CCOCC4)CC3)cc2NC(=O)c2cnn3cccnc23)c1` [Example 132, N-[3-[2-(difluoromethoxy)-5-isopropylsulfanyl-phenyl]-1-[2-(4-methyl-4-morpholino-1-piperidyl)-2-oxo-ethyl]pyrazol-4-yl]pyrazolo[1,5-a]pyrimidine-3-carboxamide], the inhibition constant (Ki) in assay [1] was determined as 0.67 nM; in assay [2] it was 1.2 nM. Further, in assay [3], the IC50 is 36 nM.

Regarding `CC(C)Sc1ccc(OC(F)F)c(-c2nn(CC(=O)N3CCN(CC4CCOCC4)CC3)cc2NC(=O)c2cnn3cccnc23)c1` [Example 135, N-[3-[2-(difluoromethoxy)-5-isopropylsulfanyl-phenyl]-1-[2-oxo-2-[4-(tetrahydropyran-4-ylmethyl)piperazin-1-yl]ethyl]pyrazol-4-yl]pyrazolo[1,5-a]pyrimidine-3-carboxamide], the Ki in assay [1] came out at 0.43 nM; in assay [2] it was 0.87 nM. Moreover, the IC50 in assay [3] came to 24 nM.

On to `CC(C)Sc1ccc(OC(F)F)c(-c2nn(CC(=O)N3CCC(CN4CCOCC4)CC3)cc2NC(=O)c2cnn3cccnc23)c1` [Example 136, N-[3-[2-(difluoromethoxy)-5-isopropylsulfanyl-phenyl]-1-[2-[4-(morpholinomethyl)-1-piperidyl]-2-oxo-ethyl]pyrazol-4-yl]pyrazolo[1,5-a]pyrimidine-3-carboxamide], for which the results for the Ki in assay [1] and in assay [2] were 0.49 nM and 1.2 nM, respectively. The IC50 in assay [3] is 20 nM.

Take `CC(C)Sc1ccc(OC(F)F)c(-c2nn(CC(=O)N3CCC(C(=O)N4CCN(C)CC4)CC3)cc2NC(=O)c2cnn3cccnc23)c1` [Example 137, N-[3-[2-(difluoromethoxy)-5-isopropylsulfanyl-phenyl]-1-[2-[4-(4-methylpiperazine-1-carbonyl)-1-piperidyl]-2-oxo-ethyl]pyrazol-4-yl]pyrazolo[1,5-a]pyrimidine-3-carboxamide]: the Ki in assay [1] amounted to 0.5 nM; in assay [2] it was 1.5 nM. Moreover, the IC50 in assay [3] is 66 nM.

In the case of `CC(C)Sc1ccc(OC(F)F)c(-c2nn(CC(=O)N3CCC(N4CC[S+]([O-])CC4)CC3)cc2NC(=O)c2cnn3cccnc23)c1` [Example 138, N-[3-[2-(difluoromethoxy)-5-isopropylsulfanyl-phenyl]-1-[2-oxo-2-[4-(1-oxo-1,4-thiazinan-4-yl)-1-piperidyl]ethyl]pyrazol-4-yl]pyrazolo[1,5-a]pyrimidine-3-carboxamide], the figures for the Ki in assay [1] and in assay [2] were 0.22 nM and 0.17 nM, respectively. The half-inhibitory concentration (IC50) in assay [3] came to 250 nM.

`CC(C)Sc1ccc(OC(F)F)c(-c2nn(CC(=O)N3CCC(N4CCn5cncc5C4)CC3)cc2NC(=O)c2cnn3cccnc23)c1` [Example 139, N-[3-[2-(difluoromethoxy)-5-isopropylsulfanyl-phenyl]-1-[2-[4-(6,8-dihydro-5H-imidazo[1,5-a]pyrazin-7-yl)-1-piperidyl]-2-oxo-ethyl]pyrazol-4-yl]pyrazolo[1,5-a]pyrimidine-3-carboxamide]: the Ki in assay [1] amounted to 0.51 nM; in assay [2], 0.84 nM. In addition, the IC50 in assay [3] was found to be 140 nM.

With `CC(C)Sc1ccc(OC(F)F)c(-c2nn(CC(=O)N3CCN(CC4CCN(CC(=O)N(C)C)CC4)CC3)cc2NC(=O)c2cnn3cccnc23)c1` [Example 140, N-[3-[2-(difluoromethoxy)-5-isopropylsulfanyl-phenyl]-1-[2-[4-[[1-[2-(dimethylamino)-2-oxo-ethyl]-4-piperidyl]methyl]piperazin-1-yl]-2-oxo-ethyl]pyrazol-4-yl]pyrazolo[1,5-a]pyrimidine-3-carboxamide], the Ki in assay [1] was 0.63 nM; in assay [2], 1.7 nM. Moreover, the IC50 in assay [3] came to 51 nM.

On to `CC(C)Sc1ccc(OC(F)F)c(-c2nn(CC(=O)N3CCN(CC4CCN(CC(=O)N5CCOCC5)CC4)CC3)cc2NC(=O)c2cnn3cccnc23)c1` [Example 141, N-[3-[2-(difluoromethoxy)-5-isopropylsulfanyl-phenyl]-1-[2-[4-[[1-(2-morpholino-2-oxo-ethyl)-4-piperidyl]methyl]piperazin-1-yl]-2-oxo-ethyl]pyrazol-4-yl]pyrazolo[1,5-a]pyrimidine-3-carboxamide], for which the figures for the Ki in assay [1] and in assay [2] were 0.78 nM and 1.9 nM, respectively. The half-inhibitory concentration (IC50) in assay [3] is 36 nM.

`CC(C)Sc1ccc(OC(F)F)c(-c2nn(CC(=O)N3CCN(C4CCN(CC(=O)N(C)C)CC4)CC3)cc2NC(=O)c2cnn3cccnc23)c1` [Example 142, N-[3-[2-(difluoromethoxy)-5-isopropylsulfanyl-phenyl]-1-[2-[4-[1-[2-(dimethylamino)-2-oxo-ethyl]-4-piperidyl]piperazin-1-yl]-2-oxo-ethyl]pyrazol-4-yl]pyrazolo[1,5-a]pyrimidine-3-carboxamide]: the Ki in assay [1] is 0.88 nM; in assay [2] it was 2 nM. The IC50 in assay [3] was 110 nM.

For `CC(C)Sc1ccc(OC(F)F)c(-c2nn(CC(=O)N3CCC(N4CCN(C5COC5)CC4)CC3)cc2NC(=O)c2cnn3cccnc23)c1` [Example 143], the Ki in assay [1] is 0.92 nM; in assay [2], 2.5 nM. Also, the IC50 in assay [3] worked out at 89 nM.

For the compound `CC(C)Sc1ccc(OC(F)F)c(-c2nn(C)cc2NC(=O)c2cnn3cccnc23)c1` [Example 144, N-[3-[2-(difluoromethoxy)-5-(propan-2-ylsulfanyl)phenyl]-1-methyl-1H-pyrazol-4-yl]pyrazolo[1,5-a]pyrimidine-3-carboxamide], the Ki in assay [1] was 0.25 nM; in assay [2], 0.14 nM. Also, the 50% inhibitory concentration (IC50) in assay [3] is 5.6 nM.
